Series [1] concerns Nedd2. Put plainly: Nedd2 immunofluorescence staining of PC12 cells with anti-N-Nedd2. As to conditions: 400 nM, 24 hours, naive and neuronal PC12 cells. It is filed as cell-based, rat. The method, then:
Naive and neuronally differentiated PC12 cells (pretreated for at least 7 days with NGF, nerve growth factor) were plated on Matrigel coated multichamber slides. V-ANedd (400 nM) was added to the indicated cultures after plating. Naive cultures were grown in RPMI 1640 medium with 5% FCS and 10% horse serum; neuronal cultures were grown in RPMI 1640 medium with 1% horse serum and NGF (100 ng/ml). After overnight maintenance, cells were fixed in ice cold methanol and then immunostained with anti-N-Nedd.
PC12 cells were plated on coverslips or on 8 well multichamber slides (LabTek, VWR), coated with Matrigel®. After growth overnight, cells were fixed in ice cold methanol and then immunostained as described (Troy et al., 1990). The primary antibody was either affinity purified antibody Anti-N-Nedd2 or Nedd2 p12 C20 (Santa Cruz Biotechnology) at a dilution of 1:200. The secondary antibody was fluoroscein isothiocyanate-conjugated goat anti-rabbit (Cappel, Durham, N.C.) at 1:100. For visualization with a Nikon® fluorescence microscope slides were coverslipped with Aqua-mount®. Confocal microscopy was done on a BioRad® 600 confocal microscope.

Series [2] relates to naive PC12 cells. Put plainly: Survival of naive PC12 cells after serum deprivation (intact nuclei count). It is filed as cell-based, rat. The settings on record: for protection from death caused by serum deprivation: additive at time of plating in serum-free medium, 24 hours.
Method: (FIG. 4B) Dose-response curve for protection from serum deprivation by V-ANedd. PC12 cells were washed for trophic factor deprivation and plated in serum-free medium with the indicated concentrations of V-ANedd. Cell survival relative to the number present with the addition of NGF was measured at one day.
PC12 cells were grown as previously described (Greene and Tischler, 1976) on rat-tail collagen-coated dishes in RPMI 1640 medium containing 5% fetal calf serum and 10% heat-inactivated horse serum (complete medium). […] For cell survival assays involving trophic factor deprivation, cells (either naive or NGF-pretreated) were extensively washed in serum-free RPMI 1640 medium and re-plated on fresh collagen-coated 24-well dishes as previously described (Rukenstein et al., 1991) in RPMI 1640 medium lacking serum or NGF. […] Various concentrations of V-ANedd (vector linked antisense oligonucleotide to Nedd2) were included in the medium as indicated. Numbers of viable cells per culture were determined by quantifying intact nuclei as previously described (Rukenstein et al., 1991). Counts were performed in triplicate and reported as means ±SEM.
Series [3] concerns Nedd2. Nature of the series: Western blot of Nedd2 in PC12 cell lysates. It is filed as cell-based, rat. The text has this: The cells were extracted in sample buffer, the extracts boiled and equal amounts of protein resolved by 10% SDS-PAGE and transferred to nitrocellulose. Blots were probed with (FIG. 3A) anti-N-Nedd at 1:500 or (FIG. 3B) anti-C-Nedd at […] and staining visualized with ECL. Bands were quantified using Scion Image® software and normalized against peripherin levels. The level of down-regulation is representative of that obtained in 5 independent experiments.
PC12 cells grown with or without V-ANedd or V-SNedd were harvested in SDS-containing sample buffer and immediately boiled. Equal amounts of protein were separated by 10% PAGE, transferred to nitrocellulose and immunostained as described (Troy et al., 1992). The affinity purified anti-N-Nedd2 was used at a dilution of 1:500. The commercial antiserum, Nedd2 p12 C20 (Santa Cruz Biotechnology), was used at a dilution of 1:350. Visualization was with ECL using goat-anti-rabbit peroxidase at 1:1000. The relative intensity of the protein bands were quantified using Scion Image 1.55® software and samples were normalized by stripping and reprobing the blots with anti-peripherin antibody.

Series [4] relates to PC12 cells. The settings on record: PC12 cells and sympathetic neurons, Troy et al., 1996b; cited from earlier work.
Series [5] deals with naive PC12 cells. The settings on record: PC12 cells and sympathetic neurons, Troy et al., 1996b; cited from earlier work.
Series [6] concerns CPP-32. Put plainly: Western blot of the same samples probed with anti-CPP32. It is filed as cell-based, rat. The settings on record: blots of the same samples probed with anti-CPP32. On the technique in general: In western blotting, separated proteins are transferred to a membrane and probed.
Series [7] relates to neuronally differentiated PC12 cells. Put plainly: Survival of neuronally differentiated PC12 cells after NGF withdrawal. In kind it is cell-based, rat. Here is the method:
(§1) (FIG. 5A) V-ANedd differentially protects neuronally differentiated PC12 cells from apoptosis caused by NGF withdrawal. PC12 cells were neuronally differentiated by exposure to NGF (100 ng/ml) for at least 7 days in RPMI 1640 medium plus 1% horse serum. Cells were deprived of serum and NGF and re-plated as described in FIGS. 4A–C. Additives present at the time of plating included 400 nM V-ANedd, 400 nM V-ICEinh or 100 ng/ml NGF (4 left-hand bars). For SOD1 down-regulation (4 right-hand bars) neuronally differentiated PC12 cells were plated in RPMI 1640 medium plus 1% horse serum, with 100 ng/ml NGF. At the time of plating, cultures were incubated, as indicated, with 50 nM V-ASOD1 and with the indicated additives (800 nM V-ANedd, 50 nM V-ICEinh). Cell survival was determined after one day and expressed as in FIGS. 4A–C.
(FIG. 5B) Dose-response curve for protection from NGF deprivation by V-ANedd. Neuronally differentiated PC12 cells were washed as above for NGF deprivation and plated in serum-free medium with the indicated concentrations of V-ANedd. Cell survival relative to the number present with the addition of NGF was quantified at one day.
(FIG. 5C) V-ANedd provides long term protection against NGF deprivation. Neuronally differentiated PC12 cells were deprived of NGF and serum and plated as described in FIG. 5A. V-ANedd (400 nM) was included at the time of NGF deprivation and replenished 1 day later. Cell survival was determined at the indicated times as in FIGS. 4A–C.
(§2) PC12 cells were grown as previously described (Greene and Tischler, 1976) on rat-tail collagen-coated dishes in RPMI 1640 medium containing 5% fetal calf serum and 10% heat-inactivated horse serum (complete medium). NGF primed (neuronally differentiated) PC12 cells were grown for at least 7 days in RPMI 1640 medium plus 1% horse serum and NGF (100 ng/ml). […] Numbers of viable cells per culture were determined by quantifying intact nuclei as previously described (Rukenstein et al., 1991). […]

The subject of series [8] is PC12 cells. Put plainly: Survival of PC12 cells after SOD1 down-regulation by V-ASOD1. In kind it is cell-based, rat. The method, then:
(FIG. 4A) V-ANedd differentially protects PC12 cells from serum deprivation. For serum deprivation (4 left-hand bars) cells were extensively washed as described in Experimental Procedures hereinbelow and the indicated additives (100 ng/ml NGF, 400 nM V-ANedd, or 200 nM V-ICEinh were added at the time of plating in serum-free RPMI1640 medium. For SOD1 down-regulation (4 right-hand bars), PC12 cells were re-plated on fresh collagen-coated 24-well dishes in complete medium (RPMI 1640 medium with 10% horse serum, 5% fetal bovine serum) with 50 nM V-ASOD1 (vector linked antisense oligonucleotide to SOD1). Additives (800 nM V-ANedd, 25 nM V-ICEinh) were included as indicated. Control cells were in complete medium. Cultures were incubated for 24 hours, lysed and number of intact nuclei counted. The numbers of surviving cells are expressed relative to the number in the control cultures (designated as 100). […] Experiments were performed in triplicate wells and data are expressed as means ±SEM.
PC12 cells were grown as previously described (Greene and Tischler, 1976) on rat-tail collagen-coated dishes in RPMI 1640 medium containing 5% fetal calf serum and 10% heat-inactivated horse serum (complete medium). […] Numbers of viable cells per culture were determined by quantifying intact nuclei as previously described (Rukenstein et al., 1991). […]

For series [9], the system named is neuronally differentiated PC12 cells. Nature of the series: Survival of neuronally differentiated PC12 cells after SOD1 down-regulation. In kind it is cell-based, rat. As to conditions: 50 nM V-ASOD1. The method, then:
as §1, §2

Series [10] deals with sympathetic neurons. Nature of the series: Sympathetic neuron death by SOD1 down-regulation and nitric oxide generation (V-ASOD1 + SNAP). It is filed as cell-based, rat. As to conditions: V-ASOD1 50 nM, SNAP 100 μM, with NGF. Here is the method: Sympathetic neurons, after 6 days in culture, were maintained with NGF (100 ng/ml) and mixtures of the following additives as indicated: V-ASOD1 (50 nM), SNAP (100 μM) and V-ANedd (400 nM). Numbers of surviving neurons were determined at the indicated times as above.
(§3) Sympathetic neuron cultures were prepared from 2 day old rat pups, as previously described (Ferrari et al., 1995). Cultures were grown in 24-well collagen coated dishes in RPMI 1640 medium plus 10% horse serum with mouse NGF (100 ng/ml). One day following plating, uridine and 5-fluorodeoxyuridine (10 μM each) were added to the cultures and left for three days to eliminate non-neuronal cells. On the sixth day following plating NGF was removed by washing the cultures three times with RPMI 1640 medium plus 10% horse serum, followed by the addition of medium containing anti-mouse NGF (1:200, Sigma, St. Louis, Mo.) with or without V-ANedd. Each culture was scored, as previously described (Rydel and Greene, 1988), as numbers of living, phase-bright neurons at various times. Three replicate cultures were assessed for each condition and data are normalized to numbers of neurons present in each culture at the time of NGF withdrawal and reported as mean ±SEM.

Series [11] has as its system sympathetic neurons. Put plainly: Survival of sympathetic neurons after NGF deprivation. It is filed as cell-based, rat. The settings on record: for survival: single addition at time of NGF withdrawal. The method, then:
(FIG. 6A) V-ANedd protects sympathetic neurons from NGF-withdrawal. At the time of NGF deprivation, V-ANedd (400 nM) was added to the cultures as indicated. Numbers of surviving neurons were determined at the indicated times as described in Experimental Procedures hereinbelow and are reported as relative to the number present in each culture at the time of NGF withdrawal.
as §3

Series [12] concerns IL-1β. Put plainly: IL-1β release from PC12 cells by ELISA. The settings on record: 50 nM V-ASOD1, 800 nM V-ANedd, 20 hours. It is filed as cell-based, rat. The method, then:
PC12 cells were plated with the indicated additives (50 nM V-ASOD1, 25 nM V-ICEinh, 800 nM V-ANedd). Controls contained complete medium. After 20 hours, media were removed and IL-1β was measured by ELISA using the Intertest-1βX® kit. Data are expressed as means ±SEM (n=3).
IL-1β was quantified by ELISA using the Intertest-1βX® kit (Genzyme, Cambridge, Mass.) as previously described (Troy et al., 1996b). PC12 cells were grown as described above, on 24-well plates, in 500 μl of medium. After one day incubation, medium was removed and IL-1β measured following the manufacturer's instructions, and number of viable cells in each well quantified.
A general note: An ELISA detects its analyte on a solid surface through an enzyme-linked reagent.

Series [13] relates to Jurkat cells. Nature of the series: Anti-Fas mediated death of Jurkat cells. The settings on record: dose-dependent, FIG. 8. It is filed as cell-based, human. The text has this: FIG. 8. […] V-ICH is an antisense oligonucleotide having an antisense sequence of human Ich, specifically V-AICH has the sequence of Seq ID No. 2.
• 1. […] Beta-amyloid peptide mediates apoptosis in PC12 cells. This apoptosis can be abrogated by down-regulation of Nedd2. Clinical Relevance of Antisense Oligonucleotides.

As for “V-SNedd: control scrambled oligonucleotide CCGTAGCGTAGCTCCGCCTGC (SEQ ID NO:5) linked to vector peptide Penetratin 1 (linked to vector peptide Penetratin 1, further chemistry not given here) [reference compound]”, in series [1], the “anti-N-Nedd2 staining (immunohistochemistry)” value is “no change in staining”. Also, the “protection from death caused by serum deprivation” value (“protection from death caused” for short) in series [2] is listed as “no effect on survival or death”. The “down-regulation of Nedd2 bands (in words)” value in series [3] (control oligonucleotide, Western blot) is listed as “did not down-regulate any of the bands”.

For the substance NGF: nerve growth factor, the “protection from death caused” value in series [2] was “promotes survival of all cells initially plated”.

As to IL-1Ra: IL-1 receptor antagonist, the “apoptosis following SOD1 down-regulation (literature)” value in [4] was “suppressed”. The “death caused by trophic factor/NGF withdrawal (literature)” value in series [5] was “little or no effect”.

With “V-ANedd: Penetratin1-linked antisense oligonucleotide to Nedd2, GCTCGGCGCCGCCATTTCCAG (SEQ ID NO:1) (Penetratin1 peptide conjugated, oligonucleotide chemistry not given here)”, in [6], the “down-regulation of CPP-32” value is listed as “no down-regulation of CPP-32”. For the same substance, the “NGF-like flattening of naive PC12 cells or neurite outgrowth from neuronally-differentiated cells” value in series [7] (morphology, 400 nM, 24 hr) was “did not mimic the actions of NGF”. Further, the “protection from apoptosis caused by NGF withdrawal” value in series [7] (neuronally differentiated PC12 cells, one day) is listed as “protected neuronally differentiated PC12 cells from apoptosis caused by NGF withdrawal”. Besides, the survival of cells entry in series [7] (two successive additions (at NGF deprivation and one day later), through 4 days) is reported as “greater than 75%”. For the same substance, the “protection from SOD1 down-regulation” value in series [8] (naive PC12 cells, 50 nM V-ASOD1, V-ANedd up to 800 nM) is given as “no protection from SOD1 down-regulation”. Moreover, in [8] (pretreatment with V-ANedd), the “protection from SOD1 down-regulation after pretreatment” value is “without effect”. The “protection from down-regulation of SOD1” value in series [9] is reported as “not from down-regulation of SOD1”. In [1], the “anti-N-Nedd2 staining (immunohistochemistry)” value is on record as “decreased to almost undetectable levels”. Also, in series [10], the “effect on sympathetic neuron death evoked by V-ASOD1+SNAP” value is recorded as “without effect”. Further, the “maintenance of neurites of NGF-deprived neurons” value in series [11] (400 nM, NGF-free medium with anti-NGF) is given as “did not maintain the neurites”. The survival entry in series [11] (after 4 days) is recorded as “over 60%”; in [11] (at 8 days), 25%. Besides, the “concentration of maximal protection” value in series [2] (added at the same time as serum withdrawal) worked out at 400 nM. Also, the “protection from death caused” value in series [2] was “protects naive PC12 cells from death caused by serum deprivation”. For the same substance, in series [2] (pretreatment for 4 hours with 50 nM V-ANedd), the “concentration of maximal survival after pretreatment” value amounted to 100 nM. Also, in series [3] (18–22 hours treatment, n=4), the “down-regulation of major band and minor Nedd2 bands” value is 60–70%. In addition, the “down-regulation of Nedd2 in the presence of V-ASOD1” value in series [3] (in the presence of V-ASOD1) is on record as “did down-regulate Nedd2”. The “IL-1β release after exposure to ASOD1” value in series [12] is “did not affect IL-1β release”.

In the case of “V-AICH: antisense oligonucleotide having an antisense sequence of human Ich, Seq ID No. 2 (GTCAGCGGCCATCAGCTT) (linked to vector peptide (Penetratin1), oligo chemistry not given here)”, the “protection from anti-Fas mediated death” value in [13] was “protect from anti-Fas mediated death in a dose-dependent manner”.
